We go through 26 compounds from patent publication US20250129078A1, “ERBB2 INHIBITORS” (Cogent Biosciences, Inc., priority 2023, published 2025).

pIC50: −log10 of the molar value. Bounds are passed on as bounds.

The pIC50 is the negative decadic logarithm of the IC50, by convention in mol/L. Higher therefore signals a low IC50.

The test concerns the target EGFR WT (Homo sapiens (Human), UniProt P00533). The test is described as follows: ErbB enzyme assay (CisBio HTRF-KinEASE-TK), EGFR WT. Type of test: biochemical. The conditions noted are these: ATP at Km (25 μM), 1 h incubation. In outline:
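HTRF KinEASE-TK kinase assay, 1 h at ambient temperature with three-fold serial compound dilutions, then 1 h detection with Sa-XL665/TK-Ab-Cryptate. IC50 is the 50 POC point of a 4-parameter logistic fit.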
(In general: Time-resolved FRET reads energy transfer from a long-lived donor to a nearby acceptor.)

Sequence of EGFR WT (P00533 25-1210): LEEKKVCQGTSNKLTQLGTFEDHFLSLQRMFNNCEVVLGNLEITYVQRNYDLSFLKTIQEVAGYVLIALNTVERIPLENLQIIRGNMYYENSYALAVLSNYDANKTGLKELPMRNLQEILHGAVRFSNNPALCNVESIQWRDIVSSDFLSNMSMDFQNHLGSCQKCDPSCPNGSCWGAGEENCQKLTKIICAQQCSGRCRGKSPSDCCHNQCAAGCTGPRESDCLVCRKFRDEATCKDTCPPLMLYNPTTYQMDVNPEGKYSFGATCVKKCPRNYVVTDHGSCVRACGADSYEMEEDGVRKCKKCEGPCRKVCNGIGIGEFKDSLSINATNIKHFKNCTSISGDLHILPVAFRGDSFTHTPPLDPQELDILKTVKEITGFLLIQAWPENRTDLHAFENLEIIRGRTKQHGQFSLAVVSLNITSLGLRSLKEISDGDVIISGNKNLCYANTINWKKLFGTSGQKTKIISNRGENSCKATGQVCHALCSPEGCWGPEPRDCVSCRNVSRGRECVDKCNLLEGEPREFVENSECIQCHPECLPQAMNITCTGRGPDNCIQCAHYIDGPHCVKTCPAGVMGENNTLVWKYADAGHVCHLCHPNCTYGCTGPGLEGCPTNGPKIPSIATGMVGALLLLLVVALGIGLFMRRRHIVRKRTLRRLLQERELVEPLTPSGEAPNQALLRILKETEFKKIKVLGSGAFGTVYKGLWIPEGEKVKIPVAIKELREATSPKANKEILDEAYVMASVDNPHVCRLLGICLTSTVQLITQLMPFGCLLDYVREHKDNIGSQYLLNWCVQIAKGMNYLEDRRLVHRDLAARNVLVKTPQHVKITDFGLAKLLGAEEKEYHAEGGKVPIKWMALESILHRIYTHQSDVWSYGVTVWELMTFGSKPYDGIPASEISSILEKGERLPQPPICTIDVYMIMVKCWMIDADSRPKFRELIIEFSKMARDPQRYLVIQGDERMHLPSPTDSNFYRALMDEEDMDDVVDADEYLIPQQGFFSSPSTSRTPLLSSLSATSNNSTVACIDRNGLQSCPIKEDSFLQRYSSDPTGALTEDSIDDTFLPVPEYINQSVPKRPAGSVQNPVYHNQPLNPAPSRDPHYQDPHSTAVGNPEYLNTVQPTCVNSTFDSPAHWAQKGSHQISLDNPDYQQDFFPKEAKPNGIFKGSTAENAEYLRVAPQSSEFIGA

In the case of `C=CC(=O)N1CCC(Oc2ncc3ncnc(Nc4ccc(Oc5cc(F)c6c(c5)ncn6C)c(C)c4)c3n2)CC1` [Compound 381, 1-(4-((8-((4-((7-fluoro-1-methyl-1H-benzo[d]imidazol-5-yl)oxy)-3-methylphenyl)amino)pyrimido[5,4-d]pyrimidin-2-yl)oxy)piperidin-1-yl)prop-2-en-1-one], the pIC50 is > 7.30. The value for `C=CC(=O)N1CCN(c2ncc3ncnc(Nc4ccc(Oc5ccc6c(c5)nnn6C)c(C)c4F)c3n2)CC1` [Compound 7, 1-(4-(8-((2-fluoro-3-methyl-4-((1-methyl-1H-benzo[d][1,2,3]triazol-5-yl)oxy)phenyl)amino)pyrimido [5,4-d]pyrimidin-2-y1)piperazin-1-yl)prop-2-en-1-one] was > 7.30; that for `C=CC(=O)N1CCN(c2ncc3ncnc(Nc4ccc(Oc5ccc6c(c5)nnn6C)c(C)c4)c3n2)C[C@H]1C(C)C` [Compound 121, (R)-1-(2-isopropyl-4-(8-((3-methyl-4-((1-methyl-1H-benzo[d][1,2,3]triazol-5-yl)oxy)phenyl)amino)pyrimido[5,4-d]pyrimidin-2-yl)piperazin-1-yl)prop-2-en-1-one] was ≤ 6.00.

As for `C=CC(=O)N1CC2CCC1CN2c1ncc2ncnc(Nc3ccc(Oc4ccc5c(c4)nnn5C)c(C)c3)c2n1` (centres unmarked) [Compound 62, 1-(5-(8-((3-methyl-4-((1-methyl-1H-benzo[d][1,2,3]triazol-5-yl)oxy)phenyl)amino)pyrimido[5,4-d]pyrimidin-2-yl)-2,5-diazabicyclo[2.2.2]octan-2-yl)prop-2-en-1-one], the pIC50 is > 7.30. The value for `C=CC(=O)N1CCN(c2ccc3ncnc(Nc4ccc(Oc5ccc6c(c5)nnn6C)c(C)c4)c3n2)CC1` [Compound 92, 1-(4-(4-((3-methyl-4-((1-methyl-1H-benzo[d][1,2,3]triazol-5-yl)oxy)phenyl)amino)pyrido[3,2-d]pyrimidin-6-yl)piperazin-1-yl)prop-2-en-1-one] was 7.00 to 7.30; that for `C=CC(=O)N[C@]1(C)CCN(c2ccc3ncnc(Nc4ccc(Oc5ccc6c(c5)nnn6C)c(C)c4)c3n2)C1` [Compound 263, (R)-N-(3-methyl-1-(4-((3-methyl-4-((1-methyl-1H-benzo[d][1,2,3]triazol-5-yl)oxy)phenyl)amino)pyrido[3,2-d]pyrimidin-6-yl)pyrrolidin-3-yl)acrylamide] was 6.30 to 7.00. For `C=CC(=O)NC1CC(N(C)c2ncc3ncnc(Nc4ccc(Oc5ccc6c(c5)nnn6C)c(C)c4)c3n2)C1` (centres unmarked) [Compound 142, N-(3-(methyl(8-((3-methyl-4-((1-methyl-1H-benzo[d][1,2,3]triazol-5-yl)oxy)phenyl)amino)pyrimido [5,4-d]pyrimidin-2-yl)amino)cyclobutyl)acrylamide], the pIC50 is 6.30 to 7.00. For `C=CC(=O)N1[C@@H](C)CN(c2ncc3ncnc(Nc4ccc(Oc5ccc6c(c5)nnn6C)c(C)c4)c3n2)C[C@@H]1C` [Compound 184, 1-((2S,6S)-2,6-dimethyl-4-(8-((3-methyl-4-((1-methyl-1H-benzo[d][1,2,3]triazol-5-yl)oxy)phenyl)amino)pyrimido[5,4-d]pyrimidin-2-yl)piperazin-1-yl)prop-2-en-1-one] the value was ≤ 6.00; for `C=CC(=O)N1CCN(c2ccc3ncnc(Nc4ccc(Oc5ccc6c(c5)nnn6C)c(C)c4)c3n2)C[C@@H]1COC` [Compound 78, (R)-1-(2-(methoxymethyl)-4-(4-((3-methyl-4-((1-methyl-1H-benzo[d][1,2,3]triazol-5-yl)oxy)phenyl)amino)pyrido[3,2-d]pyrimidin-6-yl)piperazin-1-yl)prop-2-en-1-one], 6.30 to 7.00. The value for `C=CC(=O)N1CCN(c2ccc3ncnc(Nc4ccc(Oc5cc6nnn(C)c6c(C)c5F)c(C)c4)c3n2)C[C@H]1C` [Compound 288, (R)-1-(4-(4-((4-((6-fluoro-1,7-dimethyl-1H-benzo[d][1,2,3]triazol-5-yl)oxy)-3-methylphenyl)amino)pyrido[3,2-d]pyrimidin-6-yl)-2-methylpiperazin-1-yl)prop-2-en-1-one] was 6.30 to 7.00; that for `C=CC(=O)N1CCN(c2ncc3ncnc(Nc4ccc(Oc5ccc6c(c5)nnn6C)c(C)c4)c3n2)C[C@H]1CO` [Compound 24, (S)-1-(2-(hydroxymethyl)-4-(8-((3-methyl-4-((1-methyl-1H-benzo[d][1,2,3]triazol-5-yl)oxy)phenyl)amino)pyrimido[5,4-d]pyrimidin-2-yl)piperazin-1-yl)prop-2-en-1-one] was 6.30 to 7.00; that for `C=CC(=O)N1CCN(c2ccc3ncnc(Nc4ccc(Oc5ccc6c(c5)nnn6C)c(C)c4)c3n2)C[C@H]1CC#N` [Compound 84, (R)-2-(1-acryloyl-4-(4-((3-methyl-4-((1-methyl-H-benzo[d][1,2,3]triazol-5-yl)oxy)phenyl)amino)pyrido[3,2-d]pyrimidin-6-yl)piperazin-2-yl)acetonitrile] was > 7.30.

`C=CC(=O)N1CCN(c2ccc3ncnc(Nc4ccc(Oc5cc6nnn(C)c6c(F)c5C)c(C)c4F)c3n2)C[C@H]1C` [Compound 293, (R)-1-(4-(4-((2-fluoro-4-((7-fluoro-1,6-dimethyl-1H-benzo[d][1,2,3]triazol-5-yl)oxy)-3-methylphenyl)amino)pyrido[3,2-d]pyrimidin-6-yl)-2-methylpiperazin-1-yl)prop-2-en-1-one] showed a pIC50 of 6.30 to 7.00. Turning to `C=CC(=O)N[C@H]1CCN(c2ncc3ncnc(Nc4ccc(Oc5ccc6c(c5)nnn6C)c(C)c4)c3n2)C1` [Compound 154, (S)-N-(1-(8-((3-methyl-4-((1-methyl-1H-benzo[d][1,2,3]triazol-5-yl)oxy)phenyl)amino)pyrimido [5,4-d]pyrimidin-2-yl)pyrrolidin-3-yl)acrylamide], the pIC50 is 6.30 to 7.00.

Compound `C=CC(=O)N[C@H]1CN(c2ncc3ncnc(Nc4ccc(Oc5ccc6c(c5)nnn6C)c(C)c4F)c3n2)CC[C@@H]1C` [Compound 229, N-((3R,4S)-1-(8-((2-fluoro-3-methyl-4-((1-methyl-1H-benzo[d][1,2,3]triazol-5-yl)oxy)phenyl)amino)pyrimido[5,4-d]pyrimidin-2-yl)-4-methylpiperidin-3-yl)acrylamide] gave a negative-log IC50 (pIC50) of 6.30 to 7.00. For `C=CC(=O)N[C@H]1C[C@H](C)CN(c2ncc3ncnc(Nc4ccc(Oc5ccc6c(c5)nnn6C)c(C)c4F)c3n2)C1` (single isomer, unassigned) [Compound 202] the value was 6.00 to 6.30; for `C=CC(=O)N[C@H]1CCCN(c2ncc3ncnc(Nc4ccc(Oc5ccc6c(c5)nnn6C)c(C)c4F)c3n2)CC1` [Compound 168, (S)-N-(1-(8-((2-fluoro-3-methyl-4-((1-methyl-1H-benzo[d][1,2,3]triazol-5-yl)oxy)phenyl)amino)pyrimido[5,4-d]pyrimidin-2-yl)azepan-4-yl)acrylamide], 6.00 to 6.30; for `C=CC(=O)N1CCC(Oc2ncc3ncnc(Nc4ccc(Oc5ccc6c(c5)ncn6C(F)F)c(C)c4)c3n2)CC1` [Compound 380, 1-(4-((8-((4-((1-(difluoromethyl)-1H-benzo[d]imidazol-5-yl)oxy)-3-methylphenyl)amino)pyrimido[5,4-d]pyrimidin-2-y1)oxy)piperidin-1-yl)prop-2-en-1-one], > 7.30.

Regarding `C=CC(=O)N[C@H]1CCCN(c2ccc3ncnc(Nc4ccc(Oc5ccc6c(c5)nnn6C)c(C)c4F)c3n2)CC1` [Compound 282, (S)-N-(1-(4-((2-fluoro-3-methyl-4-((1-methyl-1H-benzo[d][1,2,3]triazol-5-yl)oxy)phenyl)amino)pyrido[3,2-d]pyrimidin-6-yl)azepan-4-yl)acrylamide], the pIC50 is 6.00 to 6.30.

For `C=CC(=O)N[C@]1(C)CCN(c2ncc3ncnc(Nc4ccc(Oc5ccc6c(c5)nnn6C)c(C)c4)c3n2)C1` [Compound 144, (R)-N-(3-methyl-1-(8-((3-methyl-4-((1-methyl-1H-benzo[d][1,2,3]triazol-5-yl)oxy)phenyl)amino)pyrimido[5,4-d]pyrimidin-2-yl)pyrrolidin-3-yl)acrylamide], the negative logarithm of the IC50 (pIC50) is > 7.30. For `C=CC(=O)N1CCC(Oc2ncc3ncnc(Nc4ccc(Oc5cc(F)c6c(c5)nnn6C)c(C)c4)c3n2)CC1` [Compound 106, 1-(4-((8-((4-((7-fluoro-1-methyl-1H-benzo[d][1,2,3]triazol-5-yl)oxy)-3-methylphenyl)amino)pyrimido[5,4-d]pyrimidin-2-yl)oxy)piperidin-1-yl)prop-2-en-1-one] the value was > 7.30. The value for `C=CC(=O)N[C@@H]1CN(c2ccc3ncnc(Nc4ccc(Oc5ccc6c(c5)nnn6C)c(C)c4F)c3n2)CC[C@H]1C` (single isomer, unassigned) [Compound 347] was 6.30 to 7.00; that for `C=CC(=O)N1CCN(c2ccc3ncnc(Nc4ccc(Oc5ccc6c(c5)nnn6C)c(C)c4)c3n2)C2CC21` (centres unmarked) [Compound 75, 1-(5-(4-((3-methyl-4-((1-methyl-1H-benzo[d][1,2,3]triazol-5-yl)oxy)phenyl)amino)pyrido[3,2-d]pyrimidin-6-yl)-2,5-diazabicyclo[4.1.0]heptan-2-yl)prop-2-en-1-one] was > 7.30. For `C=CC(=O)N[C@H]1C[C@@H](C)CN(c2ccc3ncnc(Nc4ccc(Oc5ccc6c(c5)nnn6C)c(C)c4F)c3n2)C1` (single isomer, unassigned) [Compound 337] the value was 6.30 to 7.00; for `C=CC(=O)N1C2CCC1CN(c1ncc3ncnc(Nc4ccc(Oc5ccc6c(c5)nnn6C)c(C)c4)c3n1)C2` [Compound 47, 1-(3-(8-((3-methyl-4-((1-methyl-1H-benzo[d][1,2,3]triazol-5-yl)oxy)phenyl)amino)pyrimido[5,4-d]pyrimidin-2-yl)-3,8-diazabicyclo[3.2.1]octan-8-yl)prop-2-en-1-one], 6.30 to 7.00; for `C=C(F)C(=O)N1CC2CCC1CN2c1ncc2ncnc(Nc3ccc(Oc4ccc5c(c4)nnn5C)c(C)c3)c2n1` (centres unmarked) [Compound 50, 2-fluoro-1-(5-(8-((3-methyl-4-((1-methyl-1H-benzo[d][1,2,3]triazol-5-yl)oxy)phenyl)amino)pyrimido[5,4-d]pyrimidin-2-yl)-2,5-diazabicyclo[2.2.2]octan-2-yl)prop-2-en-1-one], ≤ 6.00.
